Two molecules from PMC12346198 (Cancers, 2025) can be followed below.

One assay relates to SNU475 cells. The assay is described as follows: Hollow fiber assay (HFA) model of AR-SV HCC. It is filed as in vivo. As to conditions: 25 mg/kg IP every other day for one week; nude mice. The text has this:
The hollow fiber procedures were based upon those developed by Hollingshead et al. with technical consultation kindly provided by Drs. Joanna Burdette and Dan Lantvit (University of Illinois Chicago, Chicago, IL, USA). […] In order to utilize a PO dosing approach with the HFA, we extended the traditional HFA timeline to establish angiogenesis, as noted in the literature. […] Hollow fibers (KrosFlo Implant Membranes, M138615, Repligen, Waltham, MA, USA) were filled with 3 × 10^6 SNU475 cells/mL per length and heat-sealed into 2 cm lengths on Day −1. On Day 0, three fibers were implanted into 20-week-old male outbred homozygous athymic nude mice (Foxn1^nu/Foxn1^nu, The Jackson Laboratory, Bar Harbor, ME, USA) subcutaneously parallel to the spine. Following a 14-day waiting period to allow for angiogenesis around the fibers, treatment was initiated. […] On Day 21, mice were euthanized and hollow fibers were explanted. The MTT assay was performed according to the KrosFlo Implant Membrane protocol utilizing Thiazolyl Blue Tetrazolium Bromide (M2128, MilliporeSigma, Burlington, MA, USA).

The next assay relates to Primary Male Hepatocytes. Nature of the assay: CCK-8 cytotoxicity assay, primary male hepatocytes. As to conditions: Hepatocyte, 72 h, 72 h treatment. In kind it is cell-based. On the procedure: The cytotoxicity of compounds was determined by the CCK-8 assay (Cell Counting Kit-8, CK04, Dojindo Molecular Technologies, Kumamoto, Japan). Cell lines were plated at 10,000 cells/well in 96-well plates and incubated overnight to allow for adherence (5% CO2, 37 °C). […] Cells were placed back in the incubator for 72 h treatment. CCK-8 reagent was added, and plates were further incubated 1–4 h as directed by the supplier’s instructions. Optical density was measured using a Biotek Synergy H1 plate reader at 450 nm. Primary hepatocytes were plated at 30,000 cells or 50,000 cells/well and maintained according to the technical information bulletin provided by the supplier. Upon treatment, maintenance media were supplemented with 10% FBS and fresh test compound for all subsequent media changes, as directed.
A general note: Tetrazolium assays rely on reduction of a dye to a coloured formazan, in cell work by metabolically active cells.

Bounds are passed on as bounds.

As for `CC(=O)O[C@H]1C(=O)[C@@]2(C)[C@H]([C@H](OC(=O)c3ccccc3)[C@]3(O)C[C@H](OC(=O)[C@H](O)[C@@H](NC(=O)c4ccccc4)c4ccccc4)C(C)=C1C3(C)C)[C@]1(OC(C)=O)CO[C@@H]1C[C@@H]2O` [PTX, Paclitaxel, reference compound], the “Cell viability within hollow fibers (MTT assay)” value with SNU475 cells was “significant decrease in cell viability”.
One may read the IC50 as the midpoint of a concentration-inhibition curve. For `CNC(=O)c1ccc(N2C(=S)N(c3ccc(C#N)c(C(F)(F)F)c3)C(=O)C2(C)C)cc1F` [Enzalutamide, enzalutamide], the concentration for half-maximal inhibition (IC50) in the assay on Primary Male Hepatocytes was above 30 µM.
